Measured values: patent US20230129258A1, “HETEROTANDEM BICYCLIC PEPTIDE COMPLEXES” (BicycleTx Limited, priority 2019, published 2023)
Where two headings read alike, the source gives them in different places.

Target: CD137 (Homo sapiens, UniProt Q07011)
Test: CD137 reporter assay (Promega CD137 luciferase reporter, Jurkat cells) in co-culture with Nectin-4-expressing tumor cells
Format: cell-based
Set-up: host or cells: Jurkat reporter cells
[1] = co-culture with HT1376, Table 2A
[2] = EC50 (nM), co-culture with HT1376, Table 2A

Chain of CD137 (Q07011 24-255): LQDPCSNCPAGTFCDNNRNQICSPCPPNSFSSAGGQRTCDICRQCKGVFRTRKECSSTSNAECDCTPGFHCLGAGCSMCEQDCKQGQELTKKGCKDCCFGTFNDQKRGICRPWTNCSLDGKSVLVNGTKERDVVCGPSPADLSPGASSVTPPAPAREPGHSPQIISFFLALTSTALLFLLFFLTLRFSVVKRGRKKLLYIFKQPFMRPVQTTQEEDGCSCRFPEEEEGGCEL

Row | Structure (SMILES) | EC50 [nM] | Emax [1] | EC50 [2] [nM]
1 | CCCC[C@@H]1NC(=O)[C@H](Cc2ccc(O)cc2)NC(=O)[C@@H]2CCCN2C(=O)[C@H](CC(=O)O)NC(=O)[C@H](C)NC(=O)[C@H](Cc2ccccc2)NC(=O)[C@@H]2CSCCC(=O)N3CN(CN(C3)C(=O)CCSC[C@@H](C(=O)N[C@@H](C)C(N)=O)NC1=O)C(=O)CCSC[C@H](NC(C)=O)C(=O)N[C@@H](CC(C)(C)C)C(=O)N1CCC[C@H]1C(=O)N[C@@H](CCC(=O)O)C(=O)N[C@H](CCCCNC(=O)CCc1cn(CCOCCOCCOCCOCCOCCOCCOCCOCCOCCOCCNC(=O)CCOCC(COCCC(=O)NCCOCCOCCOCCOCCOCCOCCOCCOCCOCCOCCn3cc(CCC(=O)NCCCC[C@H]4NC(=O)[C@H](CCC(=O)O)NC(=O)[C@@H]5CCCN5C(=O)[C@H](CC(C)(C)C)NC(=O)[C@@H](NC(C)=O)CSCCC(=O)N5CN6CN(C5)C(=O)CCSC[C@H](NC(=O)[C@H](Cc5ccc(O)cc5)NC(=O)[C@@H]5CCCN5C4=O)C(=O)N[C@@H](Cc4ccccc4)C(=O)N[C@@H](C)C(=O)N[C@@H](CC(=O)O)C(=O)N4CCC[C@H]4C(=O)N[C@@H](Cc4ccc(O)cc4)C(=O)N[C@@H](CCCC)C(=O)N[C@H](C(=O)N[C@@H](C)C(N)=O)CSCCC6=O)nn3)(COCCC(=O)NCCOCCOCCOCCOCCOCCOCCOCCOCCOCCOCCn3cc(CCC(=O)NCCCC[C@H]4NC(=O)[C@H](CCC(=O)O)NC(=O)[C@@H]5CCCN5C(=O)[C@H](CC(C)(C)C)NC(=O)[C@@H](NC(C)=O)CSCCC(=O)N5CN6CN(C5)C(=O)CCSC[C@H](NC(=O)[C@H](Cc5ccc(O)cc5)NC(=O)[C@@H]5CCCN5C4=O)C(=O)N[C@@H](Cc4ccccc4)C(=O)N[C@@H](C)C(=O)N[C@@H](CC(=O)O)C(=O)N4CCC[C@H]4C(=O)N[C@@H](Cc4ccc(O)cc4)C(=O)N[C@@H](CCCC)C(=O)N[C@H](C(=O)N[C@@H](C)C(N)=O)CSCCC6=O)nn3)COCCC(=O)NCCOCCOCCOCCOCCOCCOCCOCCOCCOCCOCCn3cc(CCC(=O)NCCC(=O)N[C@H]4CSCCC(=O)N5CN6CN(C5)C(=O)CCSC[C@H](NC(=O)[C@@H](CC(=O)O)NC(=O)[C@H](Cc5cccc7ccccc57)NC(=O)[C@@H]5CCCN5C4=O)C(=O)N[C@@H](CCSC)C(=O)N[C@@H](CCCCNC(=N)N)C(=O)N[C@@H](CC(=O)O)C(=O)N[C@@H](Cc4c[nH]c5ccccc45)C(=O)N[C@@H](CO)C(=O)N[C@@H]([C@@H](C)O)C(=O)N4CCC[C@H]4C(=O)N4C[C@H](O)C[C@H]4C(=O)N[C@@H](Cc4c[nH]c5ccccc45)C(=O)N[C@H](C(N)=O)CSCCC6=O)nn3)nn1)C(=O)N1CCC[C@H]1C(=O)N[C@@H](Cc1ccc(O)cc1)C(=O)N2 [BCY11022] | 0.2 | 66 fold induction over background | –
2 | CCCC[C@@H]1NC(=O)[C@H](Cc2ccc(O)cc2)NC(=O)[C@@H]2CCCN2C(=O)[C@H](CC(=O)O)NC(=O)[C@H](C)NC(=O)[C@H](Cc2ccccc2)NC(=O)[C@@H]2CSCCC(=O)N3CN(CN(C3)C(=O)CCSC[C@@H](C(=O)N[C@@H](C)C(N)=O)NC1=O)C(=O)CCSC[C@H](NC(C)=O)C(=O)N[C@@H](CC(C)(C)C)C(=O)N1CCC[C@H]1C(=O)N[C@@H](CCC(=O)O)C(=O)N[C@H](CCCCNC(=O)CCc1cn(CCOCCOCCOCCOCCOCCOCCOCCOCCOCCOCCNC(=O)c3cc(C(=O)NCCOCCOCCOCCOCCOCCOCCOCCOCCOCCOCCn4cc(CCC(=O)NCCCC[C@H]5NC(=O)[C@H](CCC(=O)O)NC(=O)[C@@H]6CCCN6C(=O)[C@H](CC(C)(C)C)NC(=O)[C@@H](NC(C)=O)CSCCC(=O)N6CN7CN(C6)C(=O)CCSC[C@H](NC(=O)[C@H](Cc6ccc(O)cc6)NC(=O)[C@@H]6CCCN6C5=O)C(=O)N[C@@H](Cc5ccccc5)C(=O)N[C@@H](C)C(=O)N[C@@H](CC(=O)O)C(=O)N5CCC[C@H]5C(=O)N[C@@H](Cc5ccc(O)cc5)C(=O)N[C@@H](CCCC)C(=O)N[C@H](C(=O)N[C@@H](C)C(N)=O)CSCCC7=O)nn4)cc(C(=O)NCCOCCOCCOCCOCCOCCOCCOCCOCCOCCOCCn4cc(CCC(=O)N[C@H]5CSCCC(=O)N6CN7CN(C6)C(=O)CCSC[C@H](NC(=O)[C@@H](CC(=O)O)NC(=O)[C@H](Cc6cccc8ccccc68)NC(=O)[C@@H]6CCCN6C5=O)C(=O)N[C@@H](CCSC)C(=O)N[C@@H](CCCCNC(=N)N)C(=O)N[C@@H](CC(=O)O)C(=O)N[C@@H](Cc5c[nH]c6ccccc56)C(=O)N[C@@H](CO)C(=O)N[C@@H]([C@@H](C)O)C(=O)N5CCC[C@H]5C(=O)N5C[C@H](O)C[C@H]5C(=O)N[C@@H](Cc5c[nH]c6ccccc56)C(=O)N[C@H](C(N)=O)CSCCC7=O)nn4)c3)nn1)C(=O)N1CCC[C@H]1C(=O)N[C@@H](Cc1ccc(O)cc1)C(=O)N2 [BCY10918] | – | – | 0.16
3 | CCCC[C@@H]1NC(=O)[C@H](Cc2ccc(O)cc2)NC(=O)[C@@H]2CCCN2C(=O)[C@H](CC(=O)O)NC(=O)[C@H](C)NC(=O)[C@H](Cc2ccccc2)NC(=O)[C@@H]2CSCCC(=O)N3CN(CN(C3)C(=O)CCSC[C@@H](C(=O)N[C@@H](C)C(N)=O)NC1=O)C(=O)CCSC[C@H](NC(C)=O)C(=O)N[C@@H](CC(C)(C)C)C(=O)N1CCC[C@H]1C(=O)N[C@@H](CCC(=O)O)C(=O)N[C@H](CCCCNC(=O)CCc1cn(CCOCCOCCOCCOCCOCCOCCOCCOCCOCCOCCNC(=O)CCOCCN(CCOCCC(=O)NCCOCCOCCOCCOCCOCCOCCOCCOCCOCCOCCn3cc(CCC(=O)NCCCC[C@H]4NC(=O)[C@H](CCC(=O)O)NC(=O)[C@@H]5CCCN5C(=O)[C@H](CC(C)(C)C)NC(=O)[C@@H](NC(C)=O)CSCCC(=O)N5CN6CN(C5)C(=O)CCSC[C@H](NC(=O)[C@H](Cc5ccc(O)cc5)NC(=O)[C@@H]5CCCN5C4=O)C(=O)N[C@@H](Cc4ccccc4)C(=O)N[C@@H](C)C(=O)N[C@@H](CC(=O)O)C(=O)N4CCC[C@H]4C(=O)N[C@@H](Cc4ccc(O)cc4)C(=O)N[C@@H](CCCC)C(=O)N[C@H](C(=O)N[C@@H](C)C(N)=O)CSCCC6=O)nn3)CCOCCC(=O)NCCOCCOCCOCCOCCOCCOCCOCCOCCOCCOCCn3cc(CCC(=O)N[C@H]4CSCCC(=O)N5CN6CN(C5)C(=O)CCSC[C@H](NC(=O)[C@@H](CC(=O)O)NC(=O)[C@H](Cc5cccc7ccccc57)NC(=O)[C@@H]5CCCN5C4=O)C(=O)N[C@@H](CCSC)C(=O)N[C@@H](CCCCNC(=N)N)C(=O)N[C@@H](CC(=O)O)C(=O)N[C@@H](Cc4c[nH]c5ccccc45)C(=O)N[C@@H](CO)C(=O)N[C@@H]([C@@H](C)O)C(=O)N4CCC[C@H]4C(=O)N4C[C@H](O)C[C@H]4C(=O)N[C@@H](Cc4c[nH]c5ccccc45)C(=O)N[C@H](C(N)=O)CSCCC6=O)nn3)nn1)C(=O)N1CCC[C@H]1C(=O)N[C@@H](Cc1ccc(O)cc1)C(=O)N2 [BCY11027] | – | – | 0.18
4 | CCCC[C@@H]1NC(=O)[C@H](Cc2ccc(O)cc2)NC(=O)[C@@H]2CCCN2C(=O)[C@H](CC(=O)O)NC(=O)[C@H](C)NC(=O)[C@H](Cc2ccccc2)NC(=O)[C@@H]2CSCCC(=O)N3CN(CN(C3)C(=O)CCSC[C@@H](C(=O)N[C@@H](CNC(=O)CCc3cn(CCOCCOCCOCCOCCOCCOCCOCCOCCOCCOCCNC(=O)c4cc(C(=O)NCCOCCOCCOCCOCCOCCOCCOCCOCCOCCOCCn5cc(CCC(=O)NC[C@H](NC(=O)[C@@H]6CSCCC(=O)N7CN8CN(C7)C(=O)CCSC[C@H](NC(=O)[C@H](Cc7ccc(O)cc7)NC(=O)[C@@H]7CCCN7C(=O)[C@@H](C)NC(=O)[C@H](CCC(=O)O)NC(=O)[C@@H]7CCCN7C(=O)[C@H](CC(C)(C)C)NC(=O)[C@@H](NC(C)=O)CSCCC8=O)C(=O)N[C@@H](Cc7ccccc7)C(=O)N[C@@H](C)C(=O)N[C@@H](CC(=O)O)C(=O)N7CCC[C@H]7C(=O)N[C@@H](Cc7ccc(O)cc7)C(=O)N[C@@H](CCCC)C(=O)N6)C(N)=O)nn5)cc(C(=O)NCCOCCOCCOCCOCCOCCOCCOCCOCCOCCOCCn5cc(CCC(=O)N[C@H]6CSCCC(=O)N7CN8CN(C7)C(=O)CCSC[C@H](NC(=O)[C@@H](CC(=O)O)NC(=O)[C@H](Cc7cccc9ccccc79)NC(=O)[C@@H]7CCCN7C6=O)C(=O)N[C@@H](CCSC)C(=O)N[C@@H](CCCCNC(=N)N)C(=O)N[C@@H](CC(=O)O)C(=O)N[C@@H](Cc6c[nH]c7ccccc67)C(=O)N[C@@H](CO)C(=O)N[C@@H]([C@@H](C)O)C(=O)N6CCC[C@H]6C(=O)N6C[C@H](O)C[C@H]6C(=O)N[C@@H](Cc6c[nH]c7ccccc67)C(=O)N[C@H](C(N)=O)CSCCC8=O)nn5)c4)nn3)C(N)=O)NC1=O)C(=O)CCSC[C@H](NC(C)=O)C(=O)N[C@@H](CC(C)(C)C)C(=O)N1CCC[C@H]1C(=O)N[C@@H](CCC(=O)O)C(=O)N[C@H](C)C(=O)N1CCC[C@H]1C(=O)N[C@@H](Cc1ccc(O)cc1)C(=O)N2 [BCY10919] | – | 62 fold induction over background | 0.19
